Experimental data taken from patent US20070166547A1, “Use of a layer consisting of hydrophobic linear, or two-dimensional polycyclic aromatics as a barrier layer or an encapsulation and electric components constructed with a layer of this type and comprising organic polymers” (priority 2003, published 2007).

Legend:
[1] = tested on: embyronic fibroblasts of mouse NIH-3T3; assay: Endocellular pHi of fibroblasts by microspectrofluorimetry (FDA, BCECF-AM); type: cell-based; details: for rise of pHi: fibroblasts in an attached spread state; for increase of pHi: 20 minutes
Procedure, shortened: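 Mouse NIH-3T3 fibroblasts loaded 5 min at 37° C with 5.0 mkM FDA or 2.0 mkM BCECF-AM; medium with 5.0 mM HEPES and 15.0 mM bicarbonate. Excitation 490 nm, emission ratio 535/570 nm averaged over 40-60 cells at 37° C. pHi calibrated by nigericin in high-K+ buffers, pH 6.2-7.6.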

[2] = tested on: synthase of nitrogen oxide (NOC); assay: Morphine abstinence model: activity of synthase of nitrogen oxide (radiometric, [3H]L-citrulline); type: in vivo, rats Wistar; details: for Activity of NOC, Hypothalamus, Control + Compound / Activity of NOC, Mesencephalon, Control + Compound: compound alone 20.0 mg/kg intramuscularly; for Activity of NOC, Hypothalamus, Control + Morphine + compound / Activity of NOC, Mesencephalon, Control + Morphine + compound: morphinized rats then compound 20.0 mg/kg intramuscularly
thymus [3] = assay: Morphine abstinence model: thymus condition; type: in vivo, rats; details: morphinized rats then compound
Description: The effect of the compounds according to the invention on the condition of the thymus of the rats was also investigated: a control group, an experimental group of morphinized animals and an experimental group of animals were first morphinized and then injected with the compounds according to the invention. The experiment was carried out similarly to that described above.

thymus [4] = assay: Morphine abstinence model: thymus condition; type: in vivo, rats; details: compound alone

SMILES	rise of pHi ([1]; 2.0 mkg/ml)	rise of pHi ([1]; 20.0 mkg/ml)	increase of pHi ([1]; medium with 10.0% blood serum, 0.02 mkg/ml, suspension)	increase of pHi ([1]; medium with 10.0% blood serum, 0.2 mkg/ml, suspension)	increase of pHi ([1]; medium with 10.0% blood serum, 2.0 mkg/ml, suspension)	increase of pHi ([1]; medium with 10.0% blood serum, 20.0 mkg/ml, suspension)	increase of pHi ([1]; medium without blood serum, 0.02 mkg/ml)	increase of pHi ([1]; medium without blood serum, 0.2 mkg/ml)	increase of pHi ([1]; medium without blood serum, 2.0 mkg/ml)	increase of pHi ([1]; medium without blood serum, 20.0 mkg/ml)	increase of pHi ([1]; medium without blood serum, 200 mkg/ml)	increase of pHi ([1]; medium without blood serum, 1000 mkg/ml)	Activity of NOC, Hypothalamus, Control + Compound [2]	Activity of NOC, Mesencephalon, Control + Compound [2]	Activity of NOC, Hypothalamus, Control + Morphine + compound [2]	Activity of NOC, Mesencephalon, Control + Morphine + compound [2]	Nitrites, thymus Supernatant, Administration of morphine and compound (thymus [3])	Thymus mass, Administration of morphine and compound (thymus [3])	Nitrites, thymus Supernatant, Administration of compounds (thymus [4])	Thymus mass, Administration of compounds (thymus [4])
Nc1cccc2c(=O)[nH][nH]c(=O)c12.[Na] [Compound 15, sodium salt of 5-amino-benzo[d]-3H-pyridazine-1,4-dione]	0.10 unit pHi	0.07 unit pHi	do not initiate a change of pH	0.1 unit pH	0.12 unit pH	do not initiate a change of pH	no effect was found	no effect was found	0.08 unit pHi	0.08 unit pHi	no effect was found	no effect was found	5.45 ± 0.24 pmol/min/mg of protein	2.60 ± 0.29 pmol/min/mg of protein	5.26 ± 0.28 pmol/min/mg of protein	1.83 ± 0.23 pmol/min/mg of protein	0.383 ± 0.02 nmol/mg of protein	214 ± 12 mg	0.407 ± 0.02 nmol/mg of protein	298 ± 25 mg
O=c1[nH][nH]c(=O)c2c(Br)ncnc12.[K] [Compound 37, potassium salt of 4-bromine-pyrimido[4,5-D]-6H-pyridazine-5,8-dione]	–	–	–	–	–	–	–	–	–	–	–	–	5.61 ± 0.22 pmol/min/mg of protein	2.62 ± 0.27 pmol/min/mg of protein	5.59 ± 0.22 pmol/min/mg of protein	1.85 ± 0.30 pmol/min/mg of protein	0.387 ± 0.01 nmol/mg of protein	228 ± 15 mg	0.410 ± 0.01 nmol/mg of protein	263 ± 21 mg
